Test results: ChEMBL document CHEMBL1201862, “PubChem BioAssay data set” (2004)
The source made the active and inactive calls.

Key:
INS1 = experiment: INS-1E survival protection against cytokine death – cell-based, luminescence, retest, dose response (AID 449756); format: functional; conditions: Rattus norvegicus;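 also: cell death triggered by IL-1 beta plus TNF-alpha plus IFN-gamma mixture; protective hits raise ATP signal compared with cytokine alone wells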
[1] = biological target: Photoreceptor-specific nuclear receptor (Homo sapiens, UniProt Q9Y5X4); format: functional, cell-based;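 also: CHO-S cells with Gal4-NCOR and VP16-NR2E3 two-hybrid luciferase reporter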
[2] = activation of miR-122 Renilla sensor silencing – cell-based, Huh7 psiCHECK-miR122, Renilla luciferase, cherry-picked, dose response (AID 651956); format: functional;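 also: huh7 hepatoma cells stably carrying a psiCHECK-2 miR-122 sensor plasmid; renilla luciferase signal reporting endogenous miR-122 activity after 48 h compound exposure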
Aminopeptidase N = biological target: T1, Aminopeptidase N (Plasmodium falciparum FcB1/Columbia, UniProt O96935); experiment: malaria alanyl aminopeptidase activity blockers – biochemical, fluorogenic H-Leu-NHMec substrate, 1536-well (AID 1445); parameters: species or system Plasmodium falciparum 3D7, 3D7
T1 sequence (O96935 whole entry): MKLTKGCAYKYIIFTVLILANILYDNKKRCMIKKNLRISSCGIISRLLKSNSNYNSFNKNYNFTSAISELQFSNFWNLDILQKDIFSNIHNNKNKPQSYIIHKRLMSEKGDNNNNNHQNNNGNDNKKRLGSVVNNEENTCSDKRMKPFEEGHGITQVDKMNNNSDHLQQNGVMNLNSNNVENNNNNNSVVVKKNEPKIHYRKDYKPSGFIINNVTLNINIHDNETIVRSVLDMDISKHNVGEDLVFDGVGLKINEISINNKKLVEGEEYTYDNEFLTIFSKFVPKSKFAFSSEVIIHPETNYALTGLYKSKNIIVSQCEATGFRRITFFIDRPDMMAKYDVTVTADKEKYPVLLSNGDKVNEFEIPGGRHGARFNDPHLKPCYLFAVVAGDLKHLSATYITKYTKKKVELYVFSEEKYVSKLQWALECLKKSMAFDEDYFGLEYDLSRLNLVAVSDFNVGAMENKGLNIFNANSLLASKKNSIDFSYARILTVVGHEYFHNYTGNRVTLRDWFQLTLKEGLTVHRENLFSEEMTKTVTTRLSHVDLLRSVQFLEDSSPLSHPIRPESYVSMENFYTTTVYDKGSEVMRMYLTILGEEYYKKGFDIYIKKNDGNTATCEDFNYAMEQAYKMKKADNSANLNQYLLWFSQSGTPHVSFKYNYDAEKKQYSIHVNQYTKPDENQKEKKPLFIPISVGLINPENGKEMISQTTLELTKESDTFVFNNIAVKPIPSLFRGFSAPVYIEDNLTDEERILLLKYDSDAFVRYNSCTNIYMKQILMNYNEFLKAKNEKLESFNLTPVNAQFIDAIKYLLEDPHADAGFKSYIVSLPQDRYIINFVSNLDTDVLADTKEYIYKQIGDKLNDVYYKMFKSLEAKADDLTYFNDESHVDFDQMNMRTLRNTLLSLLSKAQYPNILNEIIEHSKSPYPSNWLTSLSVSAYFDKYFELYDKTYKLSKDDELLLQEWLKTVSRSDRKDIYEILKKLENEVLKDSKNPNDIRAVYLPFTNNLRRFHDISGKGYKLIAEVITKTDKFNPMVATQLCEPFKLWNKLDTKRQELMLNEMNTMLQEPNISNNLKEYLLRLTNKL

Genome polyprotein = Genome polyprotein (dengue virus type 2, UniProt P29990); experiment: flavivirus cap methylation enzyme inhibition – biochemical, confirmation dose response, primary screen (AID 588689); format: functional
[3] = biological target: T2, Corticotropin-releasing factor receptor 2/Corticotropin-releasing factor-binding protein (Homo sapiens, UniProt P24387+Q13324); experiment: Dose Response confirmation of uHTS hits for small molecule antagonists of the CRF-binding protein and CRF-R2 receptor complex.; format: functional; conditions: read-out: IC50_Mean
T2 sequence (Q13324 whole entry): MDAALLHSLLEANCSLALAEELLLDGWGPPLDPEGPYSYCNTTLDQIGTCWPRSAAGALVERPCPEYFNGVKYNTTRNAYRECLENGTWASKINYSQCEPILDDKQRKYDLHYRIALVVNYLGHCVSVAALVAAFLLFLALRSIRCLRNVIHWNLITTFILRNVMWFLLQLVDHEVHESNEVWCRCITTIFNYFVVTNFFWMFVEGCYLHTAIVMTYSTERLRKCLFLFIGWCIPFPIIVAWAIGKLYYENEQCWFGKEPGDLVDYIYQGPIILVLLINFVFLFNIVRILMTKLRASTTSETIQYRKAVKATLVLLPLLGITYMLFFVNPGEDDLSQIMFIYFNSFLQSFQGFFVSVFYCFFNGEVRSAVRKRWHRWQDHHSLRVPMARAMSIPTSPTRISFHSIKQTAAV
T2 sequence (P24387 whole entry): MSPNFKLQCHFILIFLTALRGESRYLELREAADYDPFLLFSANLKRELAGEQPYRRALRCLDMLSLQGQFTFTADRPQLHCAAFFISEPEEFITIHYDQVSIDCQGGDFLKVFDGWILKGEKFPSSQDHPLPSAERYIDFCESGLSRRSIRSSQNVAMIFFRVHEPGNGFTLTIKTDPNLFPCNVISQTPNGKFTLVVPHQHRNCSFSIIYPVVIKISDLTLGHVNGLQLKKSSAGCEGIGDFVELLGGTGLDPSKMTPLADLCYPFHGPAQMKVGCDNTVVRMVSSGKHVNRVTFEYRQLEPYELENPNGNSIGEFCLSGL

[4] = biological target: T2, Corticotropin-releasing factor receptor 2/Corticotropin-releasing factor-binding protein; experiment: activators of CRF receptor 2 with binding protein – uHTS hits, confirmation (AID 602473); format: functional; conditions: read-out: EC50_Mean
[5] = blockers of CRF-binding protein–CRF-R2 complex – cell-based, uHTS hits, 384-well, dose response (AID 651639); format: functional, Homo sapiens; conditions: read-out: IC50_Mean
[6] = biological target: T3, Replicative DNA helicase DnaB (Mycobacterium tuberculosis, UniProt P9WMR3); experiment: DnaB intein splicing inhibitors, dose response, biochemical, cell-free fluorescence (AID 449749); format: functional
T3 sequence (P9WMR3 whole entry): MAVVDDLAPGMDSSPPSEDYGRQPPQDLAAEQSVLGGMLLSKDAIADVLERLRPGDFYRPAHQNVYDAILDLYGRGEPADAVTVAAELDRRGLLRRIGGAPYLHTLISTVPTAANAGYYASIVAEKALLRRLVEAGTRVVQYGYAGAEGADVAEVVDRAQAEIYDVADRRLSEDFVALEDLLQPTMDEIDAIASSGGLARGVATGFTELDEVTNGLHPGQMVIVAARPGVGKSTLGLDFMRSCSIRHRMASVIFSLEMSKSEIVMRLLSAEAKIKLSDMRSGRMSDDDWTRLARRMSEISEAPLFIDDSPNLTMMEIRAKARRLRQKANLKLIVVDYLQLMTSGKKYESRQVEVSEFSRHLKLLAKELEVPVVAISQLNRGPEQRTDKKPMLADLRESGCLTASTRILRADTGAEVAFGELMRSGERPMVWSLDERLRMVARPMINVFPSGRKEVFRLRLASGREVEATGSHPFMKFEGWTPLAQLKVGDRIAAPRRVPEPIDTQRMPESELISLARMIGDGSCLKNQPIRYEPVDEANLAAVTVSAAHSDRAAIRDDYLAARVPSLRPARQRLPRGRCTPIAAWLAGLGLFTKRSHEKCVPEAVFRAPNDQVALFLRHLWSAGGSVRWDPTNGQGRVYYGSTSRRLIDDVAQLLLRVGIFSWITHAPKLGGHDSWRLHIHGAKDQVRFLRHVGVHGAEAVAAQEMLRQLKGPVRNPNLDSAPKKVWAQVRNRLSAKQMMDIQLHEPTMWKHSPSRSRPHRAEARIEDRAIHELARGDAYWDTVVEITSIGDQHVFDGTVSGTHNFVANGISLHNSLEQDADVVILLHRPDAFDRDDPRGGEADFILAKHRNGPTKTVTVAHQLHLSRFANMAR

[7] = biological target: T4, Apoptotic protease-activating factor 1 (Homo sapiens, UniProt O14727); format: functional
T4 sequence (O14727 whole entry): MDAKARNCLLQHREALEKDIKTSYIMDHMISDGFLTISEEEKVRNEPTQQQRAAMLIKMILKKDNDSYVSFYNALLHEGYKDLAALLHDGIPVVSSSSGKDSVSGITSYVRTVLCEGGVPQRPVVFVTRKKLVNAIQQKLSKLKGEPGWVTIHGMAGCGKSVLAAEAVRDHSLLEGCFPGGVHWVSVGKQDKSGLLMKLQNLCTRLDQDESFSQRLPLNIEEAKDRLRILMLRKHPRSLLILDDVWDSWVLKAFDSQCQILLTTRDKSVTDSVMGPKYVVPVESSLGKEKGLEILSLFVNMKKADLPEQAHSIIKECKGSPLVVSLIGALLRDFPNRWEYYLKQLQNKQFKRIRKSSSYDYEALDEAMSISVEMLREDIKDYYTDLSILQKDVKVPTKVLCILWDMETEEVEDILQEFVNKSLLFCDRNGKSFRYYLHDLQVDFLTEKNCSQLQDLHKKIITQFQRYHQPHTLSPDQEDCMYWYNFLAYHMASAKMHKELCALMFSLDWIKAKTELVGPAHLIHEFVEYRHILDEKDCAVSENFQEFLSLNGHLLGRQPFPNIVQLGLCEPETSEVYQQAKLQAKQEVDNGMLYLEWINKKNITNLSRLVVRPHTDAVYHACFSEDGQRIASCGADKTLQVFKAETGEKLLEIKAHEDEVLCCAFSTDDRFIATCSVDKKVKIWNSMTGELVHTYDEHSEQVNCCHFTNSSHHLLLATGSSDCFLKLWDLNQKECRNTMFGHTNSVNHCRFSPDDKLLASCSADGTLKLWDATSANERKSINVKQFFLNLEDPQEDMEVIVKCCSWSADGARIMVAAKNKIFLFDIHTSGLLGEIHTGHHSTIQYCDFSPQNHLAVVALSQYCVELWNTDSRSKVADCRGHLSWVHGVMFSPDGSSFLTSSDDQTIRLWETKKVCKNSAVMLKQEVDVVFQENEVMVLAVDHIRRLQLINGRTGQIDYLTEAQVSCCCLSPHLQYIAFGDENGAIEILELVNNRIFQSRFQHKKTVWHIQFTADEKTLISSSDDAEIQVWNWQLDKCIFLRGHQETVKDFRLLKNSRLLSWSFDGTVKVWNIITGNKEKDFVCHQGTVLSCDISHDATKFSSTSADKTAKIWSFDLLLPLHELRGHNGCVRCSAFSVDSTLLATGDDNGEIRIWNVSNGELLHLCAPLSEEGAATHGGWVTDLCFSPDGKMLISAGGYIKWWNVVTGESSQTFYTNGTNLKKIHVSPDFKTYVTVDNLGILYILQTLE

Protein RecA = biological target: T5, Protein RecA (Mycobacterium tuberculosis, UniProt P9WHJ3); experiment: Fluorescence Cell-Free Homogeneous Dose Retest to Identify Inhibitors of RecA-Intein Splicing Activity. [Related pubchem assays (depositor defined):AID2097, AID2223, AID489010, AID492950]; format: functional
T5 sequence (P9WHJ3 whole entry): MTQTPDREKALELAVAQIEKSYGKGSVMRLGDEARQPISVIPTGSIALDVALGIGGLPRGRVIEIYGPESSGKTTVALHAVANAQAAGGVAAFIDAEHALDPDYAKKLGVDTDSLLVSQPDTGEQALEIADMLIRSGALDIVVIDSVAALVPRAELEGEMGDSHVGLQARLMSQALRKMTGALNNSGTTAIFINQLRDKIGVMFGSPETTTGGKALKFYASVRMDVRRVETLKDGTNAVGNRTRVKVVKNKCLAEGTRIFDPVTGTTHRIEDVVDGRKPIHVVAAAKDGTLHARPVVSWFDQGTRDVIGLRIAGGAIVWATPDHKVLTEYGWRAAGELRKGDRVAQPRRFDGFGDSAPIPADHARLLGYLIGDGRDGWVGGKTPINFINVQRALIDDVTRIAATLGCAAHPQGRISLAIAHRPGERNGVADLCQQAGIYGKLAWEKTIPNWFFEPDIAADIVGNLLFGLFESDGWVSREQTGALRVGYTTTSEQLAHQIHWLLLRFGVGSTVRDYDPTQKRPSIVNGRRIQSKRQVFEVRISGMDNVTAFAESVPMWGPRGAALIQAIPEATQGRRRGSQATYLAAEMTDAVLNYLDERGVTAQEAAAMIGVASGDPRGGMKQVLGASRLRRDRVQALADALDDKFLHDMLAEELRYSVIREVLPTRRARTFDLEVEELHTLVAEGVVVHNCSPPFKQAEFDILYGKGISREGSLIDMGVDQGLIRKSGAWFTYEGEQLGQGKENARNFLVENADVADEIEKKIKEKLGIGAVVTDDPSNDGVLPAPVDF

[8] = biological target: T6, Sentrin-specific protease 8 (Homo sapiens, UniProt Q96LD8); format: functional
T6 sequence (Q96LD8 whole entry): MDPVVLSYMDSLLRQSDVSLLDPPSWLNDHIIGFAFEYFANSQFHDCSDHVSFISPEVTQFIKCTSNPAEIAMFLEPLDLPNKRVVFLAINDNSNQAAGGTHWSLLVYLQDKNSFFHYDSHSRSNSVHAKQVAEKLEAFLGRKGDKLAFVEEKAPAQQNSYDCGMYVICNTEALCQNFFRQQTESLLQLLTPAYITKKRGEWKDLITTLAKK

[9] = biological target: T6, Sentrin-specific protease 8; format: functional; remark: listed apart in the source

Sequence of Photoreceptor-specific nuclear receptor (Q9Y5X4 whole entry, the tested form may be a part): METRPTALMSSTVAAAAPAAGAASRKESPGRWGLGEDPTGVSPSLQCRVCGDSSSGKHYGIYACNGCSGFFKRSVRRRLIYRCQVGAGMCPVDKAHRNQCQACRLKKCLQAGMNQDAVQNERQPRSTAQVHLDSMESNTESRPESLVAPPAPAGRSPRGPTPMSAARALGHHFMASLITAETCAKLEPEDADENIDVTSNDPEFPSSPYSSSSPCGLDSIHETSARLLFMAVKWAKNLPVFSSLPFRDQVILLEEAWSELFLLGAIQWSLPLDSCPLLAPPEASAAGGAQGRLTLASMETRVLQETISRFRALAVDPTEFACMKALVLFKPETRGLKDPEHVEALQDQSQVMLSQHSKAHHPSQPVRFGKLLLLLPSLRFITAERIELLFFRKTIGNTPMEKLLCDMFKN
Sequence of Genome polyprotein (P29990 2492-3391 limits assumed): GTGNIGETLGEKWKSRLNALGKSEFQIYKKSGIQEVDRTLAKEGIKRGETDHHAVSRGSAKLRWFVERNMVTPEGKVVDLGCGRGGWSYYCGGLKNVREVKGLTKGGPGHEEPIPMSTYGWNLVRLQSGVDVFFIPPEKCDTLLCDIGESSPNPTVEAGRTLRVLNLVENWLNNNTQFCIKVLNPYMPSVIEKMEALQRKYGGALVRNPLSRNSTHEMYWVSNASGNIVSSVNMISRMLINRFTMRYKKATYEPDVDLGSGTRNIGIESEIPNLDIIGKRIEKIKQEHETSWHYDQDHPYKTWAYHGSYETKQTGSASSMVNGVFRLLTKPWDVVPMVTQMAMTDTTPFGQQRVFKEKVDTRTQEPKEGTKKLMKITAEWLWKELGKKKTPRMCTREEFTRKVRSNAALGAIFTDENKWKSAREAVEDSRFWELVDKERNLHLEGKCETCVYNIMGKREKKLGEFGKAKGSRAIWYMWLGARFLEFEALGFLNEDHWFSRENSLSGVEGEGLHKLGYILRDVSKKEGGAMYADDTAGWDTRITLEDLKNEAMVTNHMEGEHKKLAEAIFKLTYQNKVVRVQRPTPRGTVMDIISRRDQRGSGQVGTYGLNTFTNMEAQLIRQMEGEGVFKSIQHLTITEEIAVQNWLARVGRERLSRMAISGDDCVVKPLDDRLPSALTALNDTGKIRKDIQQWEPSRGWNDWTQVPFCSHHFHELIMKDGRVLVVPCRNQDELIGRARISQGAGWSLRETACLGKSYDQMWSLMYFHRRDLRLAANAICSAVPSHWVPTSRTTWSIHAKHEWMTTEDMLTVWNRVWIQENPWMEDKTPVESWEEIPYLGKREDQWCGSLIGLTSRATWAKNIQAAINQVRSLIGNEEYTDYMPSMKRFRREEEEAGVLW

For `CC(Oc1ccc(Br)cc1)c1nc2c3ccccc3nc(S)n2n1` (stereo unspecified), which AC50 (INS1) is on record?
The AC50 was 7.23 µM (active).

And the IC50 [1]?
The IC50 was 3.74 µM (active).

For `Cc1nn(C)cc1NC(=O)C[C@@H]1CC[C@@H]2[C@@H](COc3ccc(NC(=O)Nc4cccc(Cl)c4)cc3C(=O)N2C)O1`, which AC50 [2] is on record?
Its AC50 is 22.8 µM (active).

Which AC50 [2] does the source give for `COc1ccc(N2CCN(C(=O)CSc3nnc(CNc4ccccc4)o3)CC2)cc1` here?
Its AC50 is 44.3 µM (active).

With `O=C(C1CCC(CNS(=O)(=O)c2cccc3nsnc23)CC1)N1CC=C(c2ccccc2)CC1` (stereo unspecified) as the molecule, how does the IC50 [1] read?
The IC50 was 3.8 µM (active).

With `CCOc1ccc(/C=C2\SC(=S)N(NS(=O)(=O)c3ccc(C)cc3)C2=O)cc1OC` as the molecule, how does the IC50 (Aminopeptidase N) read?
Its IC50 is 34.2 µM (active).

What about the IC50 (Genome polyprotein) of the same molecule?
Its IC50 is 58.3 µM (active).

And the IC50 [3]?
The IC50 was 6.18 µM (active).

What about the EC50 [4] of the same molecule?
Its EC50 is > 53 µM (inactive).

And the IC50 [5]?
The IC50 was > 20 µM (inactive).

What does the source list for `Cc1n[nH]c(O)c1C(c1ccc(-c2cccc(Cl)c2)o1)c1c(C)n[nH]c1O`?
AC50 [6]: > 380 µM (inactive); IC50 [7]: 17.4 µM (active); EC50 (Protein RecA): 66.2 µM (active); IC50 (Genome polyprotein): 56.5 µM (active); IC50 [8]: 2.19 µM (active); IC50 [9]: 3.19 µM (active)
